Values quoted from earlier work in patent US20250367263A9, “Therapeutic Regimens and Methods for Treatment of Cardiovascular Risk Factors using a GLP-1R and GCGR Agonist” (Spitfire Pharma LLC, priority 2022, published 2025).

SMILES: CCCCCCCCCCCCCCCC(=O)N[C@@H](CCC(=O)NCCCC[C@H](NC(=O)[C@H](CC(=O)O)NC(=O)[C@H](CO)NC(=O)[C@@H](NC(=O)[C@H](Cc1ccccc1)NC(=O)[C@@H](NC(=O)CNC(=O)[C@H](CCC(N)=O)NC(=O)[C@H](CO)NC(=O)[C@@H](N)Cc1c[nH]cn1)[C@@H](C)O)[C@@H](C)O)C(=O)N[C@@H](CO)C(=O)N[C@@H](CCC(=O)O)C(=O)N[C@@H](Cc1ccc(O)cc1)C(=O)N[C@@H](CC(C)C)C(=O)N[C@@H](CC(=O)O)C(=O)N[C@@H](CO)C(=O)N[C@@H](CCC(=O)O)C(=O)N[C@@H](CCCNC(=N)N)C(=O)N[C@@H](C)C(=O)N[C@@H](CCCNC(=N)N)C(=O)N[C@@H](CC(=O)O)C(=O)N[C@@H](Cc1ccccc1)C(=O)N[C@H](C(=O)N[C@@H](C)C(=O)N[C@@H](Cc1c[nH]c2ccccc12)C(=O)N[C@@H](CC(C)C)C(=O)N[C@@H](CCC(=O)O)C(=O)N[C@@H](C)C(=O)NCC(=O)NCC(=O)O)C(C)C)C(=O)O [cotadutide]
- reduction in liver fat content (6 weeks): 39%
- NASH-related alanine aminotransferase (ALT) reduction, versus liraglutide alone (human, in vivo): greater improvement
